Reference: PubChem BioAssay (NCI)
“And” between values parts separate entries of the source, which are not always exact repeats. Equal values may be shown once.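 Compound exposure: 48 hours, 5 concentrations, 96-well plates. GI50 marks 50% less growth. TGI is the concentration that stops growth completely.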

Assays:
Assay in all cases: DTP human tumour cell line panel, 48 h
RXF 393 renal = tested on: RXF 393 renal
SNB-75 CNS = tested on: SNB-75 CNS
SW-620 colon = tested on: SW-620 colon
U251 CNS = tested on: U251 CNS
RPMI-8226 leukemia = tested on: RPMI-8226 leukemia
T-47D breast = tested on: T-47D breast
MDA-MB-231 breast = tested on: MDA-MB-231 breast
DU-145 prostate = tested on: DU-145 prostate
SN12C renal = tested on: SN12C renal
UACC-62 melanoma = tested on: UACC-62 melanoma

Compound | GI50 (RXF 393 renal) [µM] | TGI (RXF 393 renal) | GI50 (SNB-75 CNS) [µM] | TGI (SNB-75 CNS) | TGI (SW-620 colon) [µM] | GI50 (U251 CNS) | TGI (U251 CNS) | GI50 (RPMI-8226 leukemia) [µM] | TGI (RPMI-8226 leukemia) [µM] | GI50 (T-47D breast) [µM] | TGI (T-47D breast) | GI50 (MDA-MB-231 breast) | TGI (MDA-MB-231 breast) | GI50 (DU-145 prostate) [µM] | TGI (DU-145 prostate) | GI50 (SN12C renal) | TGI (SN12C renal) | GI50 (UACC-62 melanoma) | TGI (UACC-62 melanoma) | GI50 (SW-620 colon) [µM]
c1ccc2c(Nc3ccc(Oc4ccc(Nc5c6ccccc6nc6ccccc56)cc4)cc3)c3ccccc3nc2c1 | 1.56 | 3.87 µM and > 27.2 µM | 1.59 | 3.98 µM and 1.45 µM | 0.552 | 0.0212 µM and 0.145 µM | 0.0762 µM and 0.276 µM | 0.187 | 0.434 | 0.221 | 0.51 µM and 2.74 µM | 0.197 µM and 0.139 µM | 0.566 µM and 0.268 µM | 0.403 | 1.25 µM and 0.929 µM | 0.213 µM and 0.375 µM | 0.651 µM and 1.69 µM | 1.54 µM and 0.182 µM | 3.02 µM and 0.36 µM | –
CC(C)=CCc1ccc(O)c(=O)cc1C(C)C | 1.55 | 17.4 µM | 2.88 | > 100 µM | > 100 | 0.472 µM | > 100 µM | 0.673 | > 91.3 | 3.29 | > 100 µM | 3.36 µM | > 100 µM | 0.889 | > 100 µM | 0.844 µM | > 100 µM | 0.493 µM | 4.38 µM | 0.566
Cc1[nH]n(-c2ccc(S(=O)(=O)O)cc2)c(=O)c1N=Nc1ccccc1 | – | > 100 µM | – | > 100 µM | > 100 | – | > 100 µM | – | > 100 | – | > 100 µM | – | > 100 µM | – | > 100 µM | – | > 100 µM | – | > 100 µM | –
CN1C(=O)c2cc([N+](=O)[O-])ccc2[C@H]2C(=O)c3cc4c(cc3[C@H]21)OCO4 | 0.398 | – | 0.12 | > 100 µM | > 100 | 0.0191 µM | 0.162 µM | 0.0435 | – | 0.321 | > 29.4 µM | 0.36 µM | 4.71 µM | 0.0506 | 14.9 µM | 0.0386 µM | 0.838 µM | 0.0356 µM | 0.337 µM | 0.0481
O=C(Nc1cccc([N+](=O)[O-])c1)c1ccc2ccccc2c1O | 3.37 | > 35.4 µM | 17 | > 100 µM | > 100 | 4.36 µM | > 86.8 µM | 1.28 | 5.99 | 2.64 | > 30.4 µM | 22.2 µM | > 81.9 µM | 7.58 | > 100 µM | 12 µM | > 93 µM | 4.22 µM | > 100 µM | 6.8
O=C1Nc2ccccc2/C1=C/c1ccccc1 | – | 22.9 µM | – | 33.8 µM | > 100 | – | 30 µM | – | 77.7 | – | 41.9 µM | – | 46.8 µM | – | 27.4 µM | – | 28.5 µM | – | 30.7 µM | –
NC(N)=N/N=C(/c1ccccc1)c1ccc(Cl)cc1 | 12.3 | 59.9 µM | 6.17 | 70.2 µM | > 100 | 9.4 µM | > 100 µM | 1.53 | 26.6 | > 100 | > 100 µM | 16.5 µM | 56.6 µM | 4.89 | 24.8 µM | 27.4 µM | > 100 µM | 22.4 µM | > 100 µM | 3.93
COc1ccc(N(C)c2nc(Cl)nc3ccn(C)c23)cc1 | < 0.01 | > 100 µM | < 0.01 | > 100 µM | > 100 | < 0.01 µM | > 100 µM | < 0.01 | > 100 | > 100 | > 100 µM | < 0.01 µM | > 100 µM | < 0.01 | > 100 µM | < 0.01 µM | > 100 µM | < 0.01 µM | > 100 µM | < 0.01
Cn1ccnc1C(=O)/C=C/c1ccc(C(=O)Nc2ccccc2O)cc1 | 1.62 | 3.41 µM | 0.918 | 8.58 µM | 4.12 | 1.46 µM | 4.03 µM | 0.62 | 3.8 | 2.68 | 10.8 µM | 3.26 µM | 12.3 µM | 1.95 | 5.23 µM | 2.79 µM | 10.1 µM | 1.93 µM | 5.01 µM | 1.62
O=C(CC(O)c1ccncc1)c1ccccc1 (configuration not stated) | 21.3 | > 100 µM | 17.8 | > 100 µM | > 100 | 28.6 µM | > 100 µM | 17.9 | 62.6 | 25.7 | > 100 µM | 16.7 µM | 54.6 µM | 45.5 | > 100 µM | 29.8 µM | > 100 µM | 32 µM | > 100 µM | 32.2
